Laboratory results published in PMC11853379, “Glioblastoma Cell Migration, Invasion and Vasculogenic Mimicry Downmodulated by Novel uPAcyclin Derivatives” (Cells, 2025).
Positions of bridges follow the written chain, without caps; N, C: chain ends. Residues, ends and D or L forms follow the SMILES beside them.

Tests used:
U87-MG cells [1] = assay type: cell-based, human
Procedure: The migration and invasion assays were performed with Boyden chambers, according to De Vincenzo et al., using 11 × 10^4 U87-MG and U251-MG glioblastoma cells/sample pre-treated for 40 min at 37 °C with the indicated effectors and then allowed to migrate for 3 h or to invade for 5 h at 37 °C toward 5% FBS in DMEM/0.1% BSA. The migrated or invaded cells were reported as a percentage of basal random migration or invasion and analyzed as reported in the Statistical Analyses section. The migration and invasion experiments were conducted in triplicate.
(§1) Figure 1 Binding of Ala peptides to U87-MG cells and effect of uPAcyclin and Ala peptides on U87-MG cellular migration. (A) A total of 2 × 10^6 U87-MG cells were pre-incubated for 30 min at 4 °C with increasing concentrations of unlabeled uPAcyclin and Ala peptides and then exposed to 50 nM of FITC-uPAcyclin for 2 h at 4 °C. Cell surface-associated fluorescence, as percentage of the sample with […], is shown. Experiments were carried out in duplicate, and the data shown here are representative of three independent experiments. (B) 11 × 10^4 U87-MG cells/sample were pre-treated for 40 min at 37 °C with increasing concentrations of uPAcyclin or the indicated Ala peptides and then assayed in Boyden chambers for 5% FBS-dependent migration for 3 h at 37 °C. At the end of incubation, the filters were processed as described in the Methods section. For clarity here and in the following Figures, Ala-x indicates the peptide with substituted x-position. For both assays, the p-values are in the range of 0.005 ≤ p ≤ 0.001, apart from [Ala1]uPAcyclin in the migration assay with p ≤ 0.05.
Alterations of the amino acid sequence may affect the peptide structure and may, in turn, alter its function. To test for differences in the inhibitory activity of the Ala-substituted peptides, U87-MG glioblastoma cells were subjected to a directional migration assay in Boyden chambers towards FBS, in the presence or in the absence of the indicated concentrations of uPAcyclin or one of its Ala-scan derivatives (Figure 1B).

U87-MG cells [2] = assay: F-actin cytoskeletal rearrangement, rhodamine-phalloidin staining; assay type: cell-based, human; details: 100 nM peptide pre-incubated 40 min 37 °C, then 5% FBS 3 h
Procedure: The U87-MG cells were analyzed for their cytoskeletal organization upon exposure to the indicated peptides. Briefly, 2 × 10^5 cells/sample were harvested via mild trypsinization, pre-treated for 40 min at 37 °C with 100 nM of selected peptides, and incubated with 5% FBS for 3 h at 37 °C. Samples diluted in a serum-free medium were included as negative controls. Then cells were fixed, permeabilized, and stained with 0.1 μg/mL rhodamine–phalloidin (Sigma-Merck, St. Louis, MO, USA) for 40 min at rt. To stain nuclei, the slides were incubated with 20 ng/mL DAPI (4′,6-Diamidino-2- phenylindole, Sigma-Merck, St. Louis, MO, USA) for 10 min at rt, mounted with Mowiol Mounting Medium (Sigma-Merck, St. Louis, MO, USA), and examined with the DMI6000 Leica Inverted Fluorescence Microscope ([…], Milan, Italy) at 40× magnification. At least 4 fields/samples were acquired, and the total fluorescence was measured with ImageJ.
Figure 5 Representative images of U87-MG cytoskeletal rearrangements. […] F-actin was detected via staining with rhodamine–phalloidin, as specified in the Methods section, using the Leica DMI 6000 Inverted Microscope at 40× magnification. […] In the histogram, the results are expressed as a percentage of total fluorescence intensity in the absence of FBS and peptide (no peptide); ** p-value < 0.005, * p ≤ 0.05.

[3] = target: T1, integrin αV receptors on the GBM cell surface (U87-MG cells) (Homo sapiens, UniProt P06756); assay: Receptor binding assay: displacement of FITC-uPAcyclin from U87-MG living cells
T1 construct: endogenous in cells; host or cells: U87-MG human glioblastoma cells (living, acid-treated, 4 °C)
Procedure: The U87-MG and U251-MG cell lines were harvested and acid-treated, as described. Briefly, 2 × 10^6 cells/sample were pre-incubated for 30 min at 4 °C with uPAcyclin and Ala peptides and subsequently exposed to 50 nM FITC-uPAcyclin for 2 h at 4 °C, as described. The experiments were performed three times, with duplicate samples, and analyzed as reported in the statistical analysis.
This assay confirmed that FITC-uPAcyclin binds specifically to both GBM cell lines and to the HEK-293/αV, whereas little interaction is detected with HEK-293 cells (Supporting Information, Table S7). […] To investigate the ability of novel Ala-scan peptides to compete with uPAcyclin for binding to integrin αV receptors on the GBM cell surface, the specific interaction of FITC-conjugated uPAcyclin with U87-MG living cells was tested via a receptor binding assay. U87-MG GBM cells were pre-incubated with increasing concentrations of unlabeled Ala peptides and then exposed to FITC-uPAcyclin (Figure 1A). […] When considering the relative Kdapp of uPAcyclin variants, it can be inferred that the replacement either of each of the three prolines (Pro^2, Pro^5, Pro^6) or Lys^1 increases the binding affinity of the resulting peptide compared to uPAcyclin. In contrast, the Ala mutation of other residues is detrimental to the peptide binding affinity.
as §1

T1 sequence (P06756 31-889 limits assumed): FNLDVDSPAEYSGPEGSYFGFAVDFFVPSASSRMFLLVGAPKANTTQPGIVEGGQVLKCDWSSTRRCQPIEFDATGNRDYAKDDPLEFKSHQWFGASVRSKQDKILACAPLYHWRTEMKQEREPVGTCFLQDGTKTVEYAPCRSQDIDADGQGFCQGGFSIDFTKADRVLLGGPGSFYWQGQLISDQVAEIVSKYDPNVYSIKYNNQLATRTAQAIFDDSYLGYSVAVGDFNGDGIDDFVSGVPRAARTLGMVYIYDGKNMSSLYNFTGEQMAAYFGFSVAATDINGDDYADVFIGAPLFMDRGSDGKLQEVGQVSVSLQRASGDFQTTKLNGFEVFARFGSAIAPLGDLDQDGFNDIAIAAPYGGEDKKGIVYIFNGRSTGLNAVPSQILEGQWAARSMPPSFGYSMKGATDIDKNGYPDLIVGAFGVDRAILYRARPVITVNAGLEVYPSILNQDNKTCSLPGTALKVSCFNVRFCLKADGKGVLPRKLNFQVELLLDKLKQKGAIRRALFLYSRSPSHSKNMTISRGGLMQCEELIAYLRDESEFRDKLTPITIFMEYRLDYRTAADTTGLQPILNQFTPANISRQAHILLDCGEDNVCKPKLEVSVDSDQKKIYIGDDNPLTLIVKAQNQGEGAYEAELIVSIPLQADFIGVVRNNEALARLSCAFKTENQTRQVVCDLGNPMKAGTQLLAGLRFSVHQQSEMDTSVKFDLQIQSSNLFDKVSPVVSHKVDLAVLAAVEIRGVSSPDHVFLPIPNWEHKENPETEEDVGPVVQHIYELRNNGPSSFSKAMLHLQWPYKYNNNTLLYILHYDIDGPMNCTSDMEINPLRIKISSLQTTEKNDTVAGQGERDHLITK
T1 sequence (P06756 891-1048 limits assumed): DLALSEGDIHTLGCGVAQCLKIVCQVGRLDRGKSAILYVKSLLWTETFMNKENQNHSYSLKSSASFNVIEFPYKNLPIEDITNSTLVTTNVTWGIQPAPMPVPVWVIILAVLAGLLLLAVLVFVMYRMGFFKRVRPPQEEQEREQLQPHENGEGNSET

Row | IC50 of migration lower than the single variants (U87-MG cells [1]; U87-MG migration, versus [Ala^2]uPAcyclin and [Ala^5]uPAcyclin) | binding affinity compared to uPAcyclin (in words) ([3]; displacement of FITC-uPAcyclin, U87-MG cells) | Kd ([3]; competition with 50 nM FITC-uPAcyclin, 2 × 10^6 U87-MG cells, pre-incubation 30 min 4 °C, then 2 h 4 °C, three experiments in duplicate, read-out: Kdapp) | SMILES | IC50 of migration lower / inhibitory activity higher than parental uPAcyclin (U87-MG cells [1]; U87-MG migration) | inhibitory activity on cell migration, comparison (in words) (U87-MG cells [1]; U87-MG migration toward 5% FBS) | migration reduced to (percentage of basal random migration) (U87-MG cells [1]; U87-MG, 5% FBS, concentration not given) | reduction in total F-actin fluorescence (inhibition of cytoskeletal rearrangements) (U87-MG cells [2]) | concentration at which dose-dependent inhibitory activity starts (U87-MG cells [1]; U87-MG migration toward 5% FBS) | effect on FBS-induced directional migration (in words) (U87-MG cells [1]; U87-MG, 1 µM peptide)
1 | about 10 fold | – | – | CC(=O)N[C@@H](CCCCN)C(=O)N[C@@H](C)C(=O)N[C@H]1CCC(=O)NCCCC[C@@H](C(N)=O)NC(=O)[C@H](CC(C)C)NC(=O)[C@H](CCC(=O)O)NC(=O)[C@H](CCC(=O)O)NC(=O)[C@@H]2CCCN2C(=O)[C@H](C)NC(=O)[C@H](CO)NC1=O [[Ala^2,Ala^5]uPAcyclin] (Ac-KAESAPEELK-NH2; lactam 3-10) | ~100 fold | most potent peptide of the series | about 70% | 50% | – | –
2 | – | reduced affinity | – | CC(=O)N[C@@H](CCCCN)C(=O)N1CCC[C@H]1C(=O)N[C@H]1CCC(=O)NCCCC[C@@H](C(N)=O)NC(=O)[C@H](CC(C)C)NC(=O)[C@H](C)NC(=O)[C@H](CCC(=O)O)NC(=O)[C@@H]2CCCN2C(=O)[C@@H]2CCCN2C(=O)[C@H](CO)NC1=O [[Ala^8]uPAcyclin] (Ac-KPESPPEALK-NH2; lactam 3-10) | – | – | – | – | – | –
3 | – | – | ~0.1 nM | CC(=O)N[C@@H](CCCCN)C(=O)N1CCC[C@H]1C(=O)N[C@H]1CCC(=O)NCCCC[C@@H](C(N)=O)NC(=O)[C@H](CC(C)C)NC(=O)[C@H](CCC(=O)O)NC(=O)[C@H](CCC(=O)O)NC(=O)[C@@H]2CCCN2C(=O)[C@@H]2CCCN2C(=O)[C@H](CO)NC1=O [uPAcyclin] (Ac-KPESPPEELK-NH2; lactam 3-10) | – | – | – | 35% | 1 pM | abolishes FBS-induced directional migration
